Test results published in US7358221B1, “Metathesis depolymerizable surfactants” (Sandia Corporation, priority 2004, dated 2008).

Columns and labels:
[1] = Critical micelle concentration by dynamic surface tension (surface tensiometry); assay type: physicochemical; conditions: equilibrium mode, aqueous solution
Source text: FIGS. 5 and 6 also show the response of dynamic surface tension values (operated in equilibrium mode) measured as a function of concentration for surfactants 4 and the anionic salt 7 in aqueous solution. The physicochemical properties of a surfactant change to a significant degree after reaching the cmc due to the presence of micelles and a surfactant-saturated air-water interface.
A comprehensive listing of all the physicochemical properties calculated for these surfactants is shown above in Table 1.
The surfactant concentration at the intersection of the two lines which are least-squares fit to (1) the rapidly changing surface tension readings and (2) the low, relatively constant surface tension readings at high surfactant concentrations defines the cmc by this method. The cmc's calculated from the surface tension data of surfactants 4 and 7 are 1.9 mmol and 5.9 mmol, respectively. The higher values for cmc as determined by dynamic surface tension compared to Orange OT dye solubilization can be attributed to static (dye solubilization) vs. dynamic (surface tension) measurements of the microenvironment.

[2] = Ring-closing metathesis degradation followed by 1H NMR in chloroform; assay type: physicochemical; conditions: 2 mol. % RuCl2[C21H26N2][CHC6H5]P(C6H11)3 (2nd generation Grubbs catalyst), 25° C.
Source text: Decomposition of these surfactant molecules takes place by the action of a ring closing metathesis-active transition metal catalyst on the tail portion of the surfactant, as illustrated in FIG. 8. It is believed that initiation of the decomposition reaction produces styrene. Intramolecular reaction of double bonds further up the tail group produces cyclohexene faster than cross-metathesis with another surfactant.
Cyclohexene formation is clearly evident in the solution within five minutes of adding the catalyst, as evidenced by the appearance of broad singlets at δ=1.62 and 1.97 ppm and a characteristic singlet at δ=5.67 ppm.
^1H NMR also indicates the presence of the former head group as 7-(N,N,N-trimethylammonium)hept-1-enyl iodide (unchanged chemical shift at δ=3.48 ppm from starting surfactant 4) as well as the cross-coupled product, cis/trans-1,12-bis(trimethylammonium)dodec-6-enyl diiodide (equivalent methyls at δ=3.43 ppm).
Within 5 minutes after the introduction of catalyst, cyclohexene was clearly present in solution as evidenced by the appearance of broad singlets at δ=1.62 and 1.97 ppm and a characteristic singlet at δ=5.67 ppm (see FIG. 10).
Additionally, peaks clearly assignable to allyl malonic acid (δ=5.12-5.22 ppm, δ=3.57 ppm, δ=2.68 ppm) were present, by comparison with an authentic sample. […]

Row | time to nearly complete decomposition [2] [min] | Compound | cmc as determined by surface tensiometry [1] [mmol]
1 |  | dipotassium heneicosa-2,8,14,20-tetraenyl malonate [Surfactant 7] | 5.9
2 | ≤ 60 | C=CCCCCC=CCCCCC=CCCCCC[N+](C)(C)C.[I-] [Surfactant 4, trimethylnonadeca-6,12,18-trienylammonium iodide] | 1.9
